Data on one substance can be found in patent publication US20130123107A1, “Use of Adjuvants to Improve Abscisic Acid Performance” (Valent BioSciences Corporation, priority 2007, published 2013).

The subject of this assay is Crimson seedless grapes. In words: grape coloring field study, ABA with or without Brij 98. The assay is classed as in vivo. As to conditions: for Harvest yield (%): harvest at 64 days after treatment, yield percent with sufficient color. Here is the method:
A grape coloring field study was conducted at Caruthers, Calif. ABA alone at 100 or 200 ppm or its combination with 0.05% Brij 98 was foliar applied to Crimson seedless grapes. Number of clusters with color was counted on a weekly basis, beginning at 21 days after treatment. Percentage of clusters with color was calculated. Grape yield was harvested at 64 days after treatment.
All experiments were conducted using a randomized complete block experimental design. Data were analyzed by analysis of variance. Duncan's new multiple range tests at α-005 were used for mean separations.
The effect of 0.05% Brij 98 on ABA (100 or 200 ppm) performance in grape coloration was examined in the field (Table 12). Addition of Brij 98 increased the percent of clusters with color for ABA at 100 or 200 ppm after application and increased the harvest yield percent with sufficient color. Treatment with 200 ppm ABA had more colored clusters and yield.

With “(S)-5-(1-hydroxy-2,6,6,-trimethyl-4-oxo-2-cyclohexen-1-yl)-3-methyl-(2Z,4E)-pentadienoic acid [ABA]”, the “% clusters with color” value is listed as 1.8% (100 ppm ABA foliar applied, 21 days after application); 2.7% (100 ppm ABA foliar applied, 27 days after application); 5.7% (100 ppm ABA foliar applied, 35 days after application); 7.5% (100 ppm ABA foliar applied, 43 days after application); 9.4% (100 ppm ABA foliar applied, 50 days after application); 26.1% (100 ppm ABA foliar applied, 56 days after application). For the same substance, the “% clusters with color” value runs as follows: (100 ppm ABA foliar applied, 62 days after application) 26.2%; (100 ppm ABA foliar applied, 64 days after application) 31.2%; (200 ppm ABA foliar applied, 21 days after application) 7.0%; (200 ppm ABA foliar applied, 27 days after application) 10.7%; (200 ppm ABA foliar applied, 35 days after application) 17.3%; (200 ppm ABA foliar applied, 43 days after application) 20.5%. Further, the “% clusters with color” value (200 ppm ABA foliar applied, 50 days after application) was 22.7%; the “% clusters with color” value (200 ppm ABA foliar applied, 56 days after application) was found to be 47.9%; the “% clusters with color” value (200 ppm ABA foliar applied, 62 days after application) stood at 50.3%; the “% clusters with color” value (200 ppm ABA foliar applied, 64 days after application) stood at 56.4%. The “Harvest yield (%)” value is 25.5% (100 ppm ABA foliar applied) and 49.1% (200 ppm ABA foliar applied).
